US20070254871A1, “Compounds for the Treatment of Inflammation of the Central Nervous System” (Neurotec Pharma, S.L., priority 2004, published 2007)

Test system: microglial reaction in rat hippocampal lesion
Experiment: Microglial reaction in rat hippocampal lesion (stereotaxic AMPA injection, IB4 histochemistry)
Type: in vivo
Settings: for Density of reactive microcytes / Hippocampal microgliosis area: n=4, mean±S.E.M.
Description: This model relies on the acute stereotaxic over-activation of rat glutamate hippocampal receptors that results in a neurodegenerative process characterized by a neuronal loss with astroglial and microglial reactions (cf. F. Bernal et al., Hippocampus 2000, vol. 10, pp. 296-304; F. Bernal et al., Exp. Neurol. 2000, vol. 161, pp. 686-95). In this neurodegenerative model rats were anaesthetized with equithesin (a mixture of chloral hydrate and pentobarbital sodium; 0.3 ml/100 g body weight, i.p.) and placed on a Kopf stereotaxic frame with the incisor bar set at −3.3 mm. Intracerebral injections aimed at the dorsal hippocampus were performed at 3.3 mm caudal to bregma, 2.2 mm lateral and 2.9 mm ventral from dura (cf. G. Paxinos et al., “The rat brain in stereotaxic coordinates”, Sydney: Academic Press 1986). A volume of 0.5 μl was injected over a period of 5 min.
Four different groups of rats received two injections in a 2-hour interval as follows: a) sham rats (n=4) received two injections of PBS; b) AMPA rats (α-amino-3-hydroxy-5-methylisoxazole-4-propionic acid) (n=4) received the first injection of 5.4 mM AMPA and the second of PBS; c) diazoxide rats (n=4) received two injections of 50 μM diazoxide; d) AMPA+diazo rats (n=4) received 5.4 mM AMPA+50 μM diazoxide in the first injection and 50 μM diazoxide in the second injection. All rats were sacrificed 24 hours after the lesion.
Rats were transcardially perfused with 300 ml of 0.1 M phosphate buffer (PB, pH 7.4) followed by 300 ml ice-cold fixative (flow rate 20 ml/min). The fixative consisted of 4% (w/v) paraformaldehyde in PB. Brains were removed, crioprotected with 15% (w/v) sucrose in PB and then, frozen with dry ice. Cryostat sections (12 μm) were obtained at the level of dorsal hippocampus (−3.3 mm to bregma). Isolectine B4 (IB4) histochemistry was performed to identify the microglial reaction (cf. C. A. Colton et al., J. Histochem. Cytochem. 1992, vol. 40, pp. 505-12).
Microgliosis area evaluation was performed on IB4 positive stained sections, which were analyzed using a computer-assisted image analysis system (OPTIMAS®, BioScan Inc., Washington, USA). IB4-stained reactive microcytes were counted at ×100 magnification using an ocular grid mounted on a transmission light microscope (Axiolab, Zeiss, Göttingen, Germany). One-way ANOVA was used to compare differences between groups, followed by the LSD post-hoc test. Results were expressed as mean±S.E.M. All analyses were performed with the computer program STATGRAPHICS (STSC Inc., Rockville, Md., USA).

[1] = substance alone injected into dorsal hippocampus (diazoxide: two injections of 50 μM; AMPA: 5.4 mM then PBS), 24 hours
[2] = substance alone injected into dorsal hippocampus (diazoxide: two injections of 50 μM; AMPA: 5.4 mM then PBS), sacrificed 24 hours after the lesion
[3] = AMPA+diazo group: 5.4 mM AMPA+50 μM diazoxide in first injection, 50 μM diazoxide in second, 24 hours

## Cc1onc(O)c1CC(N)C(=O)O (stereo not drawn) [AMPA, α-amino-3-hydroxy-5-methylisoxazole-4-propionic acid]
[1]
  Density of reactive microcytes: 645±59 cells/mm^2
[2]
  Hippocampal microgliosis area: 0.44±0.07 mm^2

## CC1=NS(=O)(=O)c2cc(Cl)ccc2N1 [diazoxide]
AMPA+diazo group versus AMPA group, 24 hours
  Microgliosis area as % of the AMPA group: 37%
[3]
  Density of reactive microcytes: 603±56 cells/mm^2
  Hippocampal microgliosis area: 0.16±0.02 mm^2
diazoxide-treated animals compared with AMPA-treated animals
  Effect on microglial activation (in words): reduces microglial activation to sham values
[1]
  Density of reactive microcytes: 555±91 cells/mm^2
[2]
  Hippocampal microgliosis area: 0.19±0.03 mm^2
